What was measured:
[1] = Growth inhibition of human NCI-ADR-RES cells assessed as cell growth at 10 uM after 48 hrs by sulforhodamine B assay relative to control; type: functional; details: read-out: Activity
OVCAR-8 = assay: Growth inhibition of human OVCAR8 cells assessed as cell growth at 10 uM after 48 hrs by sulforhodamine B assay relative to control; type: functional; details: OVCAR-8, 48 h, read-out: Activity
OVCAR-4 = assay: Growth inhibition of human OVCAR4 cells assessed as cell growth at 10 uM after 48 hrs by sulforhodamine B assay relative to control; type: functional; details: OVCAR-4, 48 h, read-out: Activity
UACC-257 = assay: Growth inhibition of human UACC257 cells assessed as cell growth at 10 uM after 48 hrs by sulforhodamine B assay relative to control; type: functional; details: UACC-257, 48 h, read-out: Activity
LOX IMVI = assay: Growth inhibition of human LOXIMVI cells assessed as cell growth at 10 uM after 48 hrs by sulforhodamine B assay relative to control; type: functional; details: read-out: Activity
Malme-3M = assay: Growth inhibition of human MALME-3M cells assessed as cell growth at 10 uM after 48 hrs by sulforhodamine B assay relative to control; type: functional; details: read-out: Activity
SF-295 = assay: Growth inhibition of human SF295 cells assessed as cell growth at 10 uM after 48 hrs by sulforhodamine B assay relative to control; type: functional; details: SF-295, 48 h, read-out: Activity
HCT-116 = assay: Growth inhibition of human HCT116 cells assessed as cell growth at 10 uM after 48 hrs by sulforhodamine B assay relative to control; type: functional; details: HCT-116, 48 h, read-out: Activity
HOP-92 = assay: Growth inhibition of human HOP92 cells assessed as cell growth at 10 uM after 48 hrs by sulforhodamine B assay relative to control; type: functional; details: HOP-92, 48 h, read-out: Activity
SR = assay: Growth inhibition of human SR cells assessed as cell growth at 10 uM after 48 hrs by sulforhodamine B assay relative to control; type: functional; details: read-out: Activity
MDA-MB-468 = assay: Growth inhibition of human MDA-MB-468 cells after 48 hrs by sulforhodamine B assay; type: functional; details: MDA-MB-468, 48 h
PC-3 [2] = assay: Growth inhibition of human PC3 cells after 48 hrs by sulforhodamine B assay; type: functional; details: PC-3, 48 h
RXF 393 [3] = assay: Growth inhibition of human RXF393 cells after 48 hrs by sulforhodamine B assay; type: functional; details: RXF 393, 48 h; for CC50: read-out: LC50 (the source's name)
[4] = Growth inhibition of human NCI-ADR-RES cells after 48 hrs by sulforhodamine B assay; type: functional; details: for CC50: read-out: LC50 (the source's name)
SNB-19 = assay: Growth inhibition of human SNB19 cells after 48 hrs by sulforhodamine B assay; type: functional; details: SNB-19, 48 h; for CC50: read-out: LC50 (the source's name)
NCI-H23 = assay: Growth inhibition of human NCI-H23 cells after 48 hrs by sulforhodamine B assay; type: functional; details: NCI-H23, 48 h
PC-3 [5] = assay: Growth inhibition of human PC3 cells assessed as cell growth at 10 uM after 48 hrs by sulforhodamine B assay relative to control; type: functional; details: PC-3, 48 h, read-out: Activity
RXF 393 [6] = assay: Growth inhibition of human RXF393 cells assessed as cell growth at 10 uM after 48 hrs by sulforhodamine B assay relative to control; type: functional; details: RXF 393, 48 h, read-out: Activity
HeLa = assay: Cytotoxicity against human HeLa cells; type: functional, cell-based; details: Homo sapiens, HeLa
MCF7 = assay: Cytotoxicity against human MCF7 cells; type: functional, cell-based
[7] = target: DNA topoisomerase 2-alpha (Homo sapiens, UniProt P11388); assay: Inhibition of human topoisomerase 2alpha-mediated relaxation of supercoiled pBR322 after 1 hr by ethidium bromide staining
Sequence of DNA topoisomerase 2-alpha (P11388 whole entry): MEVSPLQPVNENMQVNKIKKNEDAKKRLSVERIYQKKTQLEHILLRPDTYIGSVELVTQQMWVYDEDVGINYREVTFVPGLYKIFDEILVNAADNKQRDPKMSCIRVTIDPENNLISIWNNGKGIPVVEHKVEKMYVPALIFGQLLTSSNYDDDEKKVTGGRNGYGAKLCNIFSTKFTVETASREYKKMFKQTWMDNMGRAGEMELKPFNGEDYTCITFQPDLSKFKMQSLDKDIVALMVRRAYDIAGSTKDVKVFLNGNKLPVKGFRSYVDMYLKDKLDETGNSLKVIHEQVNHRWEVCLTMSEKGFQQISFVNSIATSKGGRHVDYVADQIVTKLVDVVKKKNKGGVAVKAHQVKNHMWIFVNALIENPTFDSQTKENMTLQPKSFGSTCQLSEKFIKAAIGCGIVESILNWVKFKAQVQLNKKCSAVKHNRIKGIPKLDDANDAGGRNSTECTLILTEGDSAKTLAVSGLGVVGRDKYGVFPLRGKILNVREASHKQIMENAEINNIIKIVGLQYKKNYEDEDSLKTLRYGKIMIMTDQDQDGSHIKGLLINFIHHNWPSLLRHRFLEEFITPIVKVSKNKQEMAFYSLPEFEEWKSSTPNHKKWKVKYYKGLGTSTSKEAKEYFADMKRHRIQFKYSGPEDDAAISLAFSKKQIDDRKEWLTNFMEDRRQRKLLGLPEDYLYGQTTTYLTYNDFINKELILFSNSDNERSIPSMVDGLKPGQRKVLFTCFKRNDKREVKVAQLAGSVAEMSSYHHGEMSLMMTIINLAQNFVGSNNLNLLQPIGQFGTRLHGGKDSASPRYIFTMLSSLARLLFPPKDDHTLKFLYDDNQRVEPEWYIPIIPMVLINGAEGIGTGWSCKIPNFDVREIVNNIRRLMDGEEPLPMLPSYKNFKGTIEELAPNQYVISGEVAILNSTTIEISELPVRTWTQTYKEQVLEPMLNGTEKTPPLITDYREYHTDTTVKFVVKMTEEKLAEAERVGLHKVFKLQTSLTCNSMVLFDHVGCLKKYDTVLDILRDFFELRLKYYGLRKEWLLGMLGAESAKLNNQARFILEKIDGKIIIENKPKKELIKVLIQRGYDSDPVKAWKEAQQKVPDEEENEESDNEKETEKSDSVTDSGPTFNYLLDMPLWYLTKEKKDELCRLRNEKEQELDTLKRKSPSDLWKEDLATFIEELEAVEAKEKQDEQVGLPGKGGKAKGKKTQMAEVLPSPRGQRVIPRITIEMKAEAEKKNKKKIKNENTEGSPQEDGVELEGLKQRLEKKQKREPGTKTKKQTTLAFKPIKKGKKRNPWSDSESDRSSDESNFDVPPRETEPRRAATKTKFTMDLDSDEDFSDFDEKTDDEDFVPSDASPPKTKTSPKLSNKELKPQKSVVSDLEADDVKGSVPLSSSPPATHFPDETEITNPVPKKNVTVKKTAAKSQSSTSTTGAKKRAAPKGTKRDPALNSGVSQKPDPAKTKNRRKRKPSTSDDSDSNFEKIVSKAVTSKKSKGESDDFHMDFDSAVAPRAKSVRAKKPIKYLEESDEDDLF

| SMILES | growth at 10 µM [1] [%] | growth at 10 µM (OVCAR-8) [%] | growth at 10 µM (OVCAR-4) [%] | growth at 10 µM (UACC-257) [%] | growth at 10 µM (LOX IMVI) [%] | growth at 10 µM (Malme-3M) [%] | growth at 10 µM (SF-295) [%] | growth at 10 µM (HCT-116) [%] | growth at 10 µM (SR) [%] | GI50 (MDA-MB-468) [µM] | LC50 (concentration killing 50% of cells) (MDA-MB-468) [µM] | TGI (MDA-MB-468) [µM] | GI50 (PC-3 [2]) [µM] | LC50 (50% lethal concentration) (PC-3 [2]) [µM] | TGI (PC-3 [2]) [µM] | GI50 (RXF 393 [3]) [µM] | TGI (RXF 393 [3]) [µM] | CC50 (RXF 393 [3]) [µM] | GI50 [4] [µM] | TGI [4] [µM] | further results |
| --- | --- | --- | --- | --- | --- | --- | --- | --- | --- | --- | --- | --- | --- | --- | --- | --- | --- | --- | --- | --- | --- |
| CCCCN(CCCC)CCCNc1nc2c(c(=N)n1-c1ccccc1)c(=S)n(-c1ccccc1)c(=S)n2-c1ccccc1 | -71.1 | -36.1 | -82 | -73.1 | -89.7 | -91.5 | -100 | -25 | -65.2 | 0.2 | 0.6 | 0.3 | 0.6 | 4.6 | 1.9 | 0.2 | 0.5 | 36.8 | 1.6 | 3.3 | growth at 10 µM (HOP-92): -66.9%; CC50 [4]: 8.1 µM; GI50 (SNB-19): 1.2 µM; TGI (SNB-19): 2.7 µM; CC50 (SNB-19): 5.8 µM; GI50 (NCI-H23): 1.6 µM; LC50 (concentration killing 50% of cells) (NCI-H23): 8.4 µM; TGI (NCI-H23): 3.4 µM; growth at 10 µM (PC-3 [5]): -70.8%; growth at 10 µM (RXF 393 [6]): -67.7% |
| CN(C)CCNc1nc2c(c(=N)n1-c1ccccc1)c(=S)n(-c1ccccc1)c(=S)n2-c1ccccc1 | 58.8 | 33.6 | 41.7 | -74.6 | -61.4 | -89.5 | -61.5 | -22.1 | 34.7 | 1.2 | 6 | 2.7 | 4 | 51.9 | 17.9 | 1.2 | 3.1 | 8.1 | 10.5 | 31 | IC50 (HeLa): 12.6 µM; IC50 (MCF7): 16 µM; IC50 [7]: > 100 µM; CC50 [4]: 91 µM; GI50 (SNB-19): 4.9 µM; TGI (SNB-19): 19 µM; CC50 (SNB-19): 50 µM; GI50 (NCI-H23): 16.8 µM; TGI (NCI-H23): 42.1 µM; growth at 10 µM (PC-3 [5]): 31%; growth at 10 µM (RXF 393 [6]): -39.1% |
